Like-named read-outs stand apart in the source and are kept apart here.
What was measured:
[1] = test system: E. coli BT3/pACYCSP+pYAGY strain; experiment: Growth of E. coli BT3/pACYCSP+pYAGY with herbicidal compound; format: cell-based, Escherichia coli; details: 1 ppm, 18 hours culture, Table 15
[2] = test system: E. coli BT3/pACYCSP+pTV118N strain; experiment: Growth of E. coli BT3/pACYCSP+pTV118N (vector control) with herbicidal compound; format: cell-based; details: Escherichia coli, 18 h, 18 hours culture
From the text: According to the description of Gibson, L. C. D. et al., Proc. Natl. Acad. Sci. USA, 92; p 1941 (1995), the DNA fragment containing bchH gene prepared in Example 1 was digested with the restriction enzymes NdeI and BglII. The resultant DNA fragment was inserted between NdeI restriction site and BamHI restriction site of expression vector pET11a (manufactured by Stratagene) to obtain plasmid pETBCH (FIG. 1). This plasmid pETBCH was introduced into E. coli BL21(DE3) strain competent cells (manufactured by Stratagene) according to the manual attached to the competent cells to obtain E. coli BL21(DE3)/pETBCH strain. The strain was inoculated into 1.5 ml LB liquid culture medium (1% tryptone, 0.5% yeast extract, 0.5% NaCl) containing 100 μg/ml ampicillin in a tube (14×10 mm), and the tube was covered with aluminum foil (hereinafter referred to as dark conditions), cultured with shaking at 37° C. under light of fluorescent lamp (about 8000 lux). When the absorbance at 600 nm of the liquid culture medium became about 0.6, isopropyl β-D-thiogalactopyranoside (IPTG) was added to the liquid culture medium so that the final concentration was 0.4 mM, and the culture was continued for about additional 20 hours. […] In contrast to this, when E. coli BL21(DE3)/pETBCH strain was cultured according to the same manner (with IPTG) except that the tube was not covered with aluminum foil (hereinafter referred to as light conditions), E. coli grew and turned red as above.
Plasmids pTVBCH and pTV118N respectively were introduced into E. coli BT3/pACYCSP strain prepared in Example 3 according to the method described in Hanahan, D. J., Mol. Biol., 166; p 557 (1983). The resultant E. coli were cultured in YPT medium containing 100 μg/ml ampicillin, 15 μg/ml chloramphenicol and 10 μg/ml kanamycin to obtain E. coli BT3/pACYCSP+pTVBCH strain bearing plasmids pACYCSP and pTVBCH, and E. coli BT3/pACYCSP+pTV118N strain bearing plasmids pACYCSP and pTV118N.
These strains were inoculated into YPT medium containing 10 or 1 ppm of the PPO inhibitory-type herbicidal compound represented by the above Structure 8, 100 μg/ml ampicillin, 15 μg/ml chloramphenicol, 10 μg/ml kanamycin, 10 μg/ml hemin and 50 μg/ml aminolevulinic acid, cultured under dark conditions or light conditions according to the same manner as in Example 2. Then, 18 hours after initiation of culture, the absorbance of the liquid culture medium was measured at 600 nm. By taking the absorbance of the medium without the herbicidal compound as 1, the relative value of the absorbance of the medium containing the herbicidal compound was calculated.
Further, these strains were inoculated into YPT medium containing PPO inhibitory-type herbicidal compounds represented by the above Structures 1, 14, 15, 18-22, 29, 32, 33, 34 and 36, respectively, 100 μg/ml ampicillin, 15 μg/ml chloramphenicol, 10 μg/ml kanamycin, 10 μg/ml hemin and 50 μg/ml aminolevulinic acid, cultured under dark conditions or light conditions similar to the Example 2. Then, 18 hours after initiation of culture, the absorbance of liquid culture medium was measured at 600 nm. By taking the absorbance of the medium without the herbicidal compound as 1, the relative value of the absorbance of the medium containing the herbicidal compound was calculated.
Plasmids pTVGMP and pTV118N prepared in Example 11 were introduced into E. coli BT3/pACYCSP strain prepared in Example 3 respectively according to the method described in Flanahan, D. J., Mol. Biol., 166; p 557 (1983). E. coli BT3/pACYCSP+pTVGMP strain bearing plasmids pACYCSP and pTVGMP, and E. coli BT3/pACYCSP+pTV118N strain bearing plasmids pACYCSP and pTV118N were obtained by culturing the above strains in YPT medium containing 100 μg/ml ampicillin, 15 μg/ml chloramphenicol and 10 μg/ml kanamycin. […]

[3] = read-out: Relative absorbance, in the dark, Table 2
[4] = read-out: Relative absorbance, in the dark, Table 7 (Example 12)
[5] = read-out: Relative absorbance, in the dark, Table 9 (Example 17)
[6] = read-out: Relative absorbance, in the dark, Table 11 (Example 20)
[7] = read-out: Relative absorbance, in the dark, Table 13 (Example 23)
[8] = read-out: Relative absorbance, in the dark, Table 14 (Example 27)
[9] = read-out: Relative absorbance, in the light, Table 2
[10] = read-out: Relative absorbance, in the light, Table 7 (Example 12)
[11] = read-out: Relative absorbance, in the light, Table 9 (Example 17)
[12] = read-out: Relative absorbance, in the light, Table 11 (Example 20)
[13] = read-out: Relative absorbance, in the light, Table 13 (Example 23)
[14] = read-out: Relative absorbance, in the light, Table 14 (Example 27)

## C#CCOc1cc(N2C(=O)C3=C(CCCC3)C2=O)c(F)cc1Cl [Structure 8]
[1]; in the dark
  Relative absorbance: 0.99
[1]; in the light
  Relative absorbance: 0.48
[2]; [3]
  activity at 1 ppm: 77%
  activity at 10 ppm: 68%
[2]; [4]
  activity at 1 ppm: 91%
  activity at 10 ppm: 89%
[2]; [5]
  activity at 1 ppm: 91%
  activity at 10 ppm: 80%
[2]; [6]
  activity at 1 ppm: 91%
  activity at 10 ppm: 80%
[2]; [7]
  activity at 1 ppm: 91%
  activity at 10 ppm: 81%
[2]; [8]
  activity at 1 ppm: 98%
  activity at 10 ppm: 96%
[2]; read-out: Relative absorbance, in the dark, Table 15 (Example 31)
  activity at 1 ppm: 93%
[2]; read-out: Relative absorbance, in the dark, Table 16 (Example 31)
  activity at 1 ppm: 81%
[2]; [9]
  activity at 1 ppm: 31%
  activity at 10 ppm: 18%
[2]; [10]
  activity at 1 ppm: 9%
  activity at 10 ppm: 5%
[2]; [11]
  activity at 1 ppm: 24%
  activity at 10 ppm: 12%
[2]; [12]
  activity at 1 ppm: 24%
  activity at 10 ppm: 12%
[2]; [13]
  activity at 1 ppm: 8%
  activity at 10 ppm: 6%
[2]; [14]
  activity at 1 ppm: 16%
  activity at 10 ppm: 6%
[2]; read-out: Relative absorbance, in the light, Table 15 (Example 31)
  activity at 1 ppm: 7%
[2]; read-out: Relative absorbance, in the light, Table 16 (Example 31)
  activity at 1 ppm: 15%

Source: US7973219B2, “Method for producing transgenic plants resistant to weed control compounds which disrupt the porphyrin pathways of plants” (Sumitomo Chemical Company, Limited, priority 1998, dated 2011)
